# Assay results: ChEMBL document CHEMBL1949647, “Design, synthesis and biological evaluation of peptidyl-vinylaminophosphonates as novel cysteine protease inhibitors” (Bioorg Med Chem, 2011)
# Peptide text beside a SMILES is read from it. * marks the point of attachment. Cbz = O=C(OCc1ccccc1)*
# Molecular target: T1, Papain (Carica papaya, UniProt P00784)
# T1 sequence (P00784 whole entry): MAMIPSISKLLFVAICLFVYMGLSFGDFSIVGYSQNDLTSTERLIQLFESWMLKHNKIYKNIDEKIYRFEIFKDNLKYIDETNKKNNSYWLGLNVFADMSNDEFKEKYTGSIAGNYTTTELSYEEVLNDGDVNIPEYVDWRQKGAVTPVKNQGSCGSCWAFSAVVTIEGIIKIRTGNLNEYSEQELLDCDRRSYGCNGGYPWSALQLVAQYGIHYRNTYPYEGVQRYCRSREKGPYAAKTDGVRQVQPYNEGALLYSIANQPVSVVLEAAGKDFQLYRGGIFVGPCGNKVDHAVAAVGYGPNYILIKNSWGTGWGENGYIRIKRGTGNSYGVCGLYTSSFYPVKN
# Assay: Inhibition of papaya papain using BAPNA as substrate assessed as p-nitroaniline release by spectrophotometric analysis
row,IC50,Compound
1,> 200 µM,CCOP(=O)(/C=C/C(NC(=O)[C@H](CC(C)C)NC(=O)OC(C)(C)C)c1ccccc1)OCC (mixture of isomers)
2,> 200 µM,CCOP(=O)(/C=C/C(NC(=O)[C@H](CC(C)C)NC(=O)OCc1ccccc1)c1ccccc1)OCC (mixture of isomers)
3,30 µM,CCOP(=O)(/C=C/C(NC(=O)[C@H](Cc1ccccc1)NC(=O)OCc1ccccc1)c1ccccc1)OCC (mixture of isomers)
4,> 200 µM,CCOP(=O)(/C=C/C(NC(=O)[C@H](Cc1c[nH]c2ccccc12)NC(=O)OCc1ccccc1)c1ccccc1)OCC (mixture of isomers)
5,83 µM,CCOP(=O)(/C=C/C(NC(=O)[C@H](Cc1ccccc1)NC(=O)[C@H](Cc1ccccc1)NC(=O)OC(C)(C)C)c1ccccc1)OCC (mixture of isomers)
6,54 µM,CCOP(=O)(/C=C/C(NC(=O)[C@H](Cc1ccc(O)cc1)NC(=O)OCc1ccccc1)c1ccccc1)OCC (mixture of isomers)
7,40 µM,CCOP(=O)(/C=C/C(NC(=O)[C@H](Cc1ccccc1)NC(=O)OC(C)(C)C)c1ccccc1)OCC (mixture of isomers)
8,132 µM,CCOP(=O)(/C=C/C(NC(=O)[C@H](CC(C)C)NC(=O)[C@H](Cc1ccccc1)NC(=O)OC(C)(C)C)c1ccccc1)OCC (mixture of isomers)
9,125 µM,CCOP(=O)(/C=C/C(NC(=O)[C@H](Cc1ccccc1)NC(=O)[C@H](Cc1ccccc1)NC(=O)OCc1ccccc1)c1ccccc1)OCC (mixture of isomers)
10,> 200 µM,CCOP(=O)(/C=C/C(NC(=O)[C@H](CC(C)C)NC(=O)OCC1c2ccccc2-c2ccccc21)c1ccccc1)OCC (mixture of isomers)

# Molecular target: Cathepsin B (Homo sapiens, UniProt P07858)
# Assay: Inhibition of cathepsin B
row,Ki,Compound
1,0.5 µM,CC[C@H](C)[C@H](NC(=O)[C@H](CCCNC(=N)N)NC(=O)OCc1ccccc1)C(=O)N[C@H](/C=N/NC(N)=O)Cc1ccccc1
2,13500 µM,COC(=O)CNC(=O)[C@H](Cc1ccccc1)NC(=O)OCc1ccccc1 (Cbz-Phe-Gly-OMe)
3,5610 µM,O=C(O)CNC(=O)[C@H](Cc1ccccc1)NC(=O)OCc1ccccc1 (Cbz-Phe-Gly-OH)
4,174000 µM,C[C@H](NC(=O)OCc1ccccc1)C(=O)N[C@@H](Cc1ccccc1)C(=O)OCF

# Molecular target: T1, Papain
# Assay: Inhibition of papaya papain using methyl hippurate as substrate by titrimetric method
row,Ki,Compound
1,6890 µM,COC(=O)N[C@@H](Cc1ccccc1)C(=O)NCC#N

# Molecular target: T1, Papain
# Assay: Inhibition of papaya papain
row,Ki,Compound
1,0.023 µM,CC[C@H](C)[C@H](NC(=O)[C@H](CCCNC(=N)N)NC(=O)OCc1ccccc1)C(=O)N[C@H](/C=N/NC(N)=O)Cc1ccccc1
2,2700 µM,COC(=O)CNC(=O)[C@H](Cc1ccccc1)NC(=O)OCc1ccccc1 (Cbz-Phe-Gly-OMe)
3,19600 µM,O=C(O)CNC(=O)[C@H](Cc1ccccc1)NC(=O)OCc1ccccc1 (Cbz-Phe-Gly-OH)
4,265 µM,CC(C)[C@H](NC(=O)[C@H](CCCNC(=N)N)NC(=O)N[C@@H](Cc1ccccc1)C(=O)O)C(=O)N[C@H](C=O)CCCNC(=N)N [ANTIPAIN]
